In patent US8304427B2, “Acylthiourea compound or salt thereof, and use thereof” (Taiho Pharmaceutical Co., Ltd., priority 2008, dated 2012):
Structures can show the parent of a compound that is named as a salt.

The compounds below were run against T1, c-Met (Homo sapiens, UniProt P08581) (assay: c-Met inhibitory assay using DeskTop Profiler (Method B)). Settings: ATP 43 μM.
Type: biochemical
Parameters: made in house
Protocol: Method B) c-Met Inhibitory Assay Using DeskTop Profiler
A dephosphorylation enzyme inhibitor cocktail (PhosSTOP, #4906837, product of Roche) and a protease inhibitor cocktail (Complete, Mini, EDTA-free, #1836170; product of Roche) were added to a reaction buffer (100 mM HEPES (pH: 7.5), 10 mM MgCl2, 0.003% Brij-35, 0.04% Tween, and 1 mM DTT). In the presence of the compound of the present invention, recombinant c-Met (purified product of Taiho Pharmaceutical Co., Ltd.), fluorescence-labeled c-Met substrate peptide (FL-Peptide 2, #760346, Caliper Life Sciences) (final concentration: 1.5 μM), and ATP (final concentration: 43 μM) were added thereto, and the mixture was allowed to react at 28° C. for 90 minutes. EDTA was added to the reaction mixture to a final concentration of 10 mM, to thereby terminate reaction. By use of DeskTop Profiler (#119900, Caliper Life Sciences), each fluorescence intensity of the substrate and that of the phosphorylated product was determined, whereby the amount of the formed phosphorylated product was determined. The compound concentration that realizes 50% inhibition of formation of phosphorylated product was defined as IC50 (μM), and the results are shown in the following Tables.
Target sequence in this assay (P08581 25-1390): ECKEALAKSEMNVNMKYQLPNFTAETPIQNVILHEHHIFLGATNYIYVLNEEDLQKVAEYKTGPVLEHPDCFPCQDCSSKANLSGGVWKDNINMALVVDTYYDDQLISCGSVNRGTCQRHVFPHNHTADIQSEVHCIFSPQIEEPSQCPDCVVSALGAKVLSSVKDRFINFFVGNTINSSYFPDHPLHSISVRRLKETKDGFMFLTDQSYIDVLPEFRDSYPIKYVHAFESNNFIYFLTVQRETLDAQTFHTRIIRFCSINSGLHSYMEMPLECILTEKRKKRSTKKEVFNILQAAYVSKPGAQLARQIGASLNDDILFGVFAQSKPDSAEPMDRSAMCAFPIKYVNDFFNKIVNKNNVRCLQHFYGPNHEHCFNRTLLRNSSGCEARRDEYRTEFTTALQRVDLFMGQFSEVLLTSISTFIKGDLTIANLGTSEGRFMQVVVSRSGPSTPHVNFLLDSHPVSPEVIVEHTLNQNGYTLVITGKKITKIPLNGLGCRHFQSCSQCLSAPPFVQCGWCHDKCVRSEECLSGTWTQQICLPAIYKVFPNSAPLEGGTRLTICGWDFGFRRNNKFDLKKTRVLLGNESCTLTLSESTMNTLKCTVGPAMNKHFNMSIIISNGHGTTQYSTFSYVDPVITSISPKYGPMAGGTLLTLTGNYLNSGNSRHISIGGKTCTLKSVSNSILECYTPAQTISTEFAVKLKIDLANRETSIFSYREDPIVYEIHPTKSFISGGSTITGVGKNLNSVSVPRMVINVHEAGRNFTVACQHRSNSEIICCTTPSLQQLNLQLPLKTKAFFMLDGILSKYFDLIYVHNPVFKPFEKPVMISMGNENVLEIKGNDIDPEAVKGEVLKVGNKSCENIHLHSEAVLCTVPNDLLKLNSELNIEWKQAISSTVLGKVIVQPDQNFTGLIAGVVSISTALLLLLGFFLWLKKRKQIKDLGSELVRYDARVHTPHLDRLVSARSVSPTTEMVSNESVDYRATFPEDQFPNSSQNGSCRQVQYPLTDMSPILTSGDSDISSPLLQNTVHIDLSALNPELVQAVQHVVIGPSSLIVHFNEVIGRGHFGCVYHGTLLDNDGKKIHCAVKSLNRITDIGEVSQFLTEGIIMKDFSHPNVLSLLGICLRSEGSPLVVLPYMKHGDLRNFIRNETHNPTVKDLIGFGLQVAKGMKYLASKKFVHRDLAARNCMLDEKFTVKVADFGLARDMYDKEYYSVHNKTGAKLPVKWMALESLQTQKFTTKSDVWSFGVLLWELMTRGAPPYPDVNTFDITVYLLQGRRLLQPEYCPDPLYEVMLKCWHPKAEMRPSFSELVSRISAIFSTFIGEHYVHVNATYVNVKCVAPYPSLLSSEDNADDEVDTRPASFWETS

IC50 [nM]	Structure (SMILES)
26	CC[C@@H](CO)NC(=O)c1cc2c(Oc3ccc(NC(=S)NC(=O)Cc4ccccc4)cc3F)ccnc2cc1OC [Example 31, (S)-4-(2-Fluoro-4-(3-(2-phenylacetyl)thioureido)phenoxy)-N-(1-hydroxybutan-2-yl)-7-methoxyquinoline-6-carboxamide]
12	COCCNC(=O)CNC(=O)c1cc2c(Oc3ccc(NC(=S)NC(=O)Cc4ccccc4)cc3F)ccnc2cc1OC [Example 33, 4-(2-Fluoro-4-(3-(2-phenylacetyl)thioureido)phenoxy)-7-methoxy-N-(2-(2-methoxyethylamino)-2-oxoethyl)quinoline-6-carboxamide]
31	CCN(CC(C)(C)O)C(=O)CNC(=O)c1cc2c(Oc3ccc(NC(=S)NC(=O)Cc4ccccc4)cc3F)ccnc2cc1OC [Example 35, N-(2-(Ethyl(2-hydroxy-2-methylpropyl)amino)-2-oxoethyl)-4-(2-fluoro-4-(3-(2-phenylacetyl)thioureido)phenoxy)-7-methoxyquinoline-6-carboxamide]
52	COc1cc2nccc(Oc3ccc(NC(=S)NC(=O)Cc4ccccc4)cc3F)c2cc1C(=O)NCCC(=O)N(C)C [Example 36, N-(3-(Dimethylamino)-3-oxopropyl)-4-(2-fluoro-4-(3-(2-phenylacetyl)thioureido)phenoxy)-7-methoxyquinoline-6-carboxamide]

What follows are compounds tested against T1, c-Met (assay: c-Met inhibitory assay using AlphaScreen (Method A)). Settings: ATP 20 μM.
Type: biochemical
Parameters: purchased Carna bio Co., Ltd 08-051
Protocol: Inhibitory activity of compounds against c-Met kinase was determined through the following procedures. Method A) c-Met inhibitory assay using AlphaScreen™
A biotinylated peptide including a phosphorylated site of Pyk2 (Tyr402), which is reported as a bio-substrate in Clin. Cancer Res. vol. […] The mixture was allowed to react at room temperature for 20 minutes. EDTA was added to the reaction mixture to a final concentration of 50 mM, to thereby terminate reaction. […] The reaction was done for one hour at room temperature. Thereafter, the fluorescence intensity from the reaction mixture was measured using a multi-label counter (EnVision™, Perkin Elmer).
Target sequence in this assay (P08581 956-1390 limits assumed): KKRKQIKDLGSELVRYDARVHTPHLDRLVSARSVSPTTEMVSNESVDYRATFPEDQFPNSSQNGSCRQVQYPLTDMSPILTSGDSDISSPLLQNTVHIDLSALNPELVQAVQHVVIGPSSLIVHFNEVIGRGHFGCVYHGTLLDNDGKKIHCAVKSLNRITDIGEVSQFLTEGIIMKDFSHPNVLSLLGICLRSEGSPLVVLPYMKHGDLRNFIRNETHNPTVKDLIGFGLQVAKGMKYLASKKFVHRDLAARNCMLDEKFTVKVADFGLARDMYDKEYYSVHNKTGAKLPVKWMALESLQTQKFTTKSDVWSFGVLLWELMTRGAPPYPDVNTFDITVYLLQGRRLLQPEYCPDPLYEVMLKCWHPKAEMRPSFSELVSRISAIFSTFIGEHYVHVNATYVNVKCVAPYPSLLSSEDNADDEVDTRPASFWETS

IC50 [nM]	Structure (SMILES)
210	COc1cc2nccc(Oc3ccc(NC(=S)NC(=O)Cc4ccccc4)cc3F)c2cc1C(=O)NCCCOC(C)C [Example 1, 4-(2-Fluoro-4-(3-(2-phenylacetyl)thioureido)phenoxy)-N-(3-isopropyloxypropyl)-7-methoxyquinoline-6-carboxamide]
167	COc1cc2nccc(Oc3ccc(NC(=S)NC(=O)Cc4ccccc4)cc3F)c2cc1C(=O)NCC1COC(C)(C)O1 (stereo not drawn) [Example 2, N-((2,2-Dimethyl-1,3-dioxolan-4-yl)methyl)-4-(2-fluoro-4-(3-(2-phenylacetyl)thioureido)phenoxy)-7-methoxyquinoline-6-carboxamide]
62	COc1cc2nccc(Oc3ccc(NC(=S)NC(=O)Cc4ccccc4)cc3F)c2cc1C(=O)NCC(O)CO (stereo not drawn) [Example 3, N-(2,3-Dihydroxypropyl)-4-(2-fluoro-4-(3-(2-phenylacetyl)thioureido)phenoxy)-7-methoxyquinoline-6-carboxamide]
140	COc1cc2nccc(Oc3ccc(NC(=S)NC(=O)Cc4ccccc4)cc3F)c2cc1C(=O)NCc1cccnc1 [Example 4, 4-(2-Fluoro-4-(3-(2-phenylacetyl)thioureido)phenoxy)-7-methoxy-N-(pyridin-3-ylmethyl)quinoline-6-carboxamide]
104	CNC(=O)c1cc2c(Oc3ccc(NC(=S)NC(=O)Cc4ccccc4)cc3F)ccnc2cc1OC [Example 6, 4-(2-Fluoro-4-(3-(2-phenylacetyl)thioureido)phenoxy)-7-methoxy-N-methylquinoline-6-carboxamide]
50	COCCNC(=O)c1cc2c(Oc3ccc(NC(=S)NC(=O)Cc4ccccc4)cc3F)ccnc2cc1OC [Example 7, 4-(2-Fluoro-4-(3-(2-phenylacetyl)thioureido)phenoxy)-7-methoxy-N-(methoxyethyl)quinoline-6-carboxamide]
106	CCN(CC)CCNC(=O)c1cc2c(Oc3ccc(NC(=S)NC(=O)Cc4ccccc4)cc3F)ccnc2cc1OC [Example 8, N-(2-(Diethylamino)ethyl)-4-(2-fluoro-4-(3-(2-phenylacetyl)thioureido)phenoxy)-7-methoxyquinoline-6-carboxamide]
102	COc1cc2nccc(Oc3ccc(NC(=S)NC(=O)Cc4ccccc4)cc3F)c2cc1C(=O)NCCN1CCOCC1 [Example 9, 4-(2-Fluoro-4-(3-(2-phenylacetyl)thioureido)phenoxy)-7-methoxy-N-(2-morpholinoethyl)quinoline-6-carboxamide]
68	COc1cc2nccc(Oc3ccc(NC(=S)NC(=O)Cc4ccccc4)cc3F)c2cc1C(=O)NCCOCCO [Example 10, 4-(2-Fluoro-4-(3-(2-phenylacetyl)thioureido)phenoxy)-N-(2-(2-hydroxyethoxy)ethyl)-7-methoxyquinoline-6-carboxamide]
145	COc1cc2nccc(Oc3ccc(NC(=S)NC(=O)Cc4ccccc4)cc3F)c2cc1C(=O)NCCNC(C)=O [Example 11, N-(2-Acetamidoethyl)-4-(2-fluoro-4-(3-(2-phenylacetyl)thioureido)phenoxy)-7-methoxyquinoline-6-carboxamide]
52	COc1cc2nccc(Oc3ccc(NC(=S)NC(=O)Cc4ccccc4)cc3F)c2cc1C(=O)NC(CO)CO [Example 12, N-(1,3-Dihydroxypropan-2-yl)-4-(2-fluoro-4-(3-(2-phenylacetyl)thioureido)phenoxy)-7-methoxyquinoline-6-carboxamide]
157	COc1cc2nccc(Oc3ccc(NC(=S)NC(=O)Cc4ccccc4)cc3F)c2cc1C(=O)NC1CCNCC1 [Example 14, 4-(2-Fluoro-4-(3-(2-phenylacetyl)thioureido)phenoxy)-7-methoxy-N-(piperidin-4-yl)quinoline-6-carboxamide dihydrochloride]
177	COc1cc2nccc(Oc3ccc(NC(=S)NC(=O)Cc4ccccc4)cc3F)c2cc1C(=O)NC1CCCCNC1=O (stereo not drawn) [Example 16, 4-(2-Fluoro-4-(3-(2-phenylacetyl)thioureido)phenoxy)-7-methoxy-N-(2-oxoazepan-3-yl)quinoline-6-carboxamide]
30	COc1cc2nccc(Oc3ccc(NC(=S)NC(=O)Cc4ccccc4)cc3F)c2cc1C(=O)NCC(=O)N1CCCC1 [Example 17, 4-(2-Fluoro-4-(3-(2-phenylacetyl)thioureido)phenoxy)-7-methoxy-N-(2-oxo-2-(pyrrolidin-1-yl)ethyl)quinoline-6-carboxamide]
300	COc1cc2nccc(Oc3ccc(NC(=S)NC(=O)Cc4ccccc4)cc3F)c2cc1C(=O)NC1CCN(C(C)=O)CC1 [Example 18, N-(1-Acetylpiperidin-4-yl)-4-(2-fluoro-4-(3-(2-phenylacetyl)thioureido)phenoxy)-7-methoxyquinoline-6-carboxamide]
250	CCC(O)CNC(=O)c1cc2c(Oc3ccc(NC(=S)NC(=O)Cc4ccc(F)cc4)cc3F)ccnc2cc1OC (stereo not drawn) [Example 23, 4-(2-Fluoro-4-(3-(2-(4-fluorophenyl)acetyl)thioureido)phenoxy)-N-(2-hydroxybutyl)-7-methoxyquinoline-6-carboxamide]
72	COc1cc2nccc(Oc3ccc(NC(=S)NC(=O)Cc4ccccc4)cc3F)c2cc1C(=O)NCC1(O)CCCCC1 [Example 25, 4-(2-Fluoro-4-(3-(2-phenylacetyl)thioureido)phenoxy)-N-((1-hydroxycyclohexyl)methyl)-7-methoxyquinoline-6-carboxamide]
125	COc1cc2nccc(Oc3ccc(NC(=S)NC(=O)Cc4ccccc4)cc3F)c2cc1C(=O)NCC1(O)CCOCC1 [Example 26, 4-(2-Fluoro-4-(3-(2-phenylacetyl)thioureido)phenoxy)-N-((4-hydroxytetrahydro-2H-pyran-4-yl)methyl)-7-methoxyquinoline-6-carboxamide]
94	COc1cc2nccc(Oc3ccc(NC(=S)NC(=O)Cc4ccccc4)cc3F)c2cc1C(=O)Nc1ccccc1C [Example 28, 4-(2-Fluoro-4-(3-(2-phenylacetyl)thioureido)phenoxy)-7-methoxy-N-o-tolylquinoline-6-carboxamide]
234	COc1cc2nccc(Oc3ccc(NC(=S)NC(=O)Cc4ccccc4)cc3F)c2cc1C(=O)N[C@H](CO)c1ccccc1 [Example 29, (S)-4-(2-Fluoro-4-(3-(2-phenylacetyl)thioureido)phenoxy)-N-(2-hydroxy-1-phenylethyl)-7-methoxyquinoline-6-carboxamide]
40	COc1cc2nccc(Oc3ccc(NC(=S)NC(=O)Cc4ccccc4)cc3F)c2cc1C(=O)NCC(O)c1nnn(C)n1 (stereo not drawn) [Example 30, 4-(2-Fluoro-4-(3-(2-phenylacetyl)thioureido)phenoxy)-N-(2-hydroxy-2-(2-methyl-2H-tetrazol-5-yl)ethyl)-7-methoxyquinoline-6-carboxamide]
134	COc1cc2nccc(Oc3ccc(NC(=S)NC(=O)Cc4ccccc4)cc3F)c2cc1C(=O)N1CCC(N2CCCC2)CC1 [Example 51, N-(3-Fluoro-4-(7-methoxy-6-(4-(pyrrolidin-1-yl)piperidine-1-carbonyl)quinolin-4-yloxy)phenylcarbamothioyl)-2-phenylacetamide]
142	COc1cc2nccc(Oc3ccc(NC(=S)NC(=O)Cc4ccccc4)cc3F)c2cc1C(=O)N1CCC(O)C1 (stereo not drawn) [Example 52, N-(3-Fluoro-4-(6-(3-hydroxypyrrolidine-1-carbonyl)-7-methoxyquinolin-4-yloxy)phenylcarbamothioyl)-2-phenylacetamide]
